Data reported in ChEMBL document CHEMBL1127650, “Investigation of the active site of aminopeptidase A using a series of new thiol-containing inhibitors” (J Med Chem, 1994).

What was measured:
[1] = test system: Glutamyl aminopeptidase (Oryctolagus cuniculus); assay: Inhibition of aminopeptidase A (APA) at 0.4 mM
Aminopeptidase B = Aminopeptidase B (Homo sapiens, UniProt Q9H4A4); assay: Inhibition of arginylaminopeptidase (aminopeptidase B); parameters: species or system Oryctolagus cuniculus
Chain of Aminopeptidase B (Q9H4A4 whole entry): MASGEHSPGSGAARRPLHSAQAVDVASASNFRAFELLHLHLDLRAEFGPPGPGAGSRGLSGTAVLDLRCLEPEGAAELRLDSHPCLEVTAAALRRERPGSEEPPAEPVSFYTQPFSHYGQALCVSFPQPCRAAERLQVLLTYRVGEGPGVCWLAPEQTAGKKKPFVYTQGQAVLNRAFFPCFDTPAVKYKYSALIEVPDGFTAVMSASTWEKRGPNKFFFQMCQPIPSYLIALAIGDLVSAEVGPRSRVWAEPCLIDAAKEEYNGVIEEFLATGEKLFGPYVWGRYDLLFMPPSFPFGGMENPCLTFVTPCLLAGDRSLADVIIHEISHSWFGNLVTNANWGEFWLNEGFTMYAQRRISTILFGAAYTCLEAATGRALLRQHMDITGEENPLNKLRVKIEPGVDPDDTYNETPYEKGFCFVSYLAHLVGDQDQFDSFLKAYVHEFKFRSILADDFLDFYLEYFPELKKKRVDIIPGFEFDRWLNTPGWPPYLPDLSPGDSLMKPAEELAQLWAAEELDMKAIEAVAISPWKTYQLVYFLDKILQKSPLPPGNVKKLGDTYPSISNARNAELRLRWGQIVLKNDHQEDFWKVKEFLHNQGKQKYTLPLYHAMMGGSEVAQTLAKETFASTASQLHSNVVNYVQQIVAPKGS

| Compound | inhibition [1] [%] | Ki (Aminopeptidase B) [nM] |
| --- | --- | --- |
| NC(CC(=O)O)Cc1ccccc1 (centres undefined) | 0 |  |
| NC(Cc1ccccc1)CP(=O)(O)O (centres undefined) | 13 |  |
| NCCCCC(S)C(=O)O (centres undefined) |  | 0.9 |
| NC(CC(=O)NO)Cc1ccccc1 (centres undefined) | 0 |  |
